This note sets out measurements from ChEMBL document CHEMBL1153648, “1,4-Benzodiazepin-2-one derived neurokinin-1 receptor antagonists” (Bioorg Med Chem Lett, 1997).

pIC50, pKi: −log10 of the molar value.

For one assay, the target named is T1, Substance-P receptor (Homo sapiens, UniProt P25103). The experiment in a line: Concentration required for 50% inhibition of neurokinin-1 receptor.
T1 sequence (P25103 whole entry): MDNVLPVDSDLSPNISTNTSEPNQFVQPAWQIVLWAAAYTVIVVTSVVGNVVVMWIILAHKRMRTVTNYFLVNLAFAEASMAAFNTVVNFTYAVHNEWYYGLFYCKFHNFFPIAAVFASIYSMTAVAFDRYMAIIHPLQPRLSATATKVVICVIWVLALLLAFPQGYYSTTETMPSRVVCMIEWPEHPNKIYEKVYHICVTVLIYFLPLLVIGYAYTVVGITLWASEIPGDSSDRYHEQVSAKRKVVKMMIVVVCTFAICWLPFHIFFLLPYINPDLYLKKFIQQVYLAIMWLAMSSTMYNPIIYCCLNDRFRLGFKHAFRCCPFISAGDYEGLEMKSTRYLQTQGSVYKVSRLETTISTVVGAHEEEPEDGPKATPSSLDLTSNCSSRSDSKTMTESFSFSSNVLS
One may read the pIC50 as the IC50 on a negative log10 scale, so that one unit is a factor of ten. High values mean a small IC50, low ones a large IC50. `CC(=O)NC(Cc1c[nH]c2ccccc12)C(=O)N(C)Cc1ccccc1` (stereo not given) had a negative-log IC50 (pIC50) of 6.12.

The target of a further assay is T2, Cholecystokinin receptor type A (Homo sapiens, UniProt P32238).
T2 sequence (P32238 whole entry): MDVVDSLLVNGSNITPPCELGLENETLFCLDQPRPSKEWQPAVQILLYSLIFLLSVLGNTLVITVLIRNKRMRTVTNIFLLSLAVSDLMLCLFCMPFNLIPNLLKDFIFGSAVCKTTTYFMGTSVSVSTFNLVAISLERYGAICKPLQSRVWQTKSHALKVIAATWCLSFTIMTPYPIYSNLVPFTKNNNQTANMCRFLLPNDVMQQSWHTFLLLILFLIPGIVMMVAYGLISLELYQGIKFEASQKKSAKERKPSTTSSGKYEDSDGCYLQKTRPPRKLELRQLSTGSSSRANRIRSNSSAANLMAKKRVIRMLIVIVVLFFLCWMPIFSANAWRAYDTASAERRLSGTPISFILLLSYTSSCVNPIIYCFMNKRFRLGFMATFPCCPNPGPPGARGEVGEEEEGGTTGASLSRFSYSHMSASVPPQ
In words: Concentration required for 50% inhibition of cholecystokinin A(CCK A).
`CCCCCN(CCCCC)C(=O)C(Cc1c[nH]c2ccccc12)NC(=O)c1ccc(Cl)c(Cl)c1` (stereo not given) gave a negative-log IC50 (pIC50) of 6.72.

The target of another assay is T1, Substance-P receptor. In words: Tested for affinity against NK-1(Neurokinin-1) receptor expressed as pKi.
One may read the pKi as the negative decadic logarithm of the Ki, by convention in mol/L. A low value points to a high Ki. As for `CN(Cc1cc(C(F)(F)F)cc(C(F)(F)F)c1)C(=O)N1CC(=O)Nc2ccccc2C1CN1CCOCC1` (stereo not given), the pKi is 6.10.

Compound `O=C1CN(C(=O)NCc2cc(C(F)(F)F)cc(C(F)(F)F)c2)C(c2ccccc2)c2ccccc2N1` (stereo not given) had a negative logarithm of the Ki (pKi) of 6.20.

`CC1c2ccccc2NC(=O)CN1C(=O)N(C)Cc1cc(C(F)(F)F)cc(C(F)(F)F)c1` (stereo not given) gave a pKi of 7.50. `CN(Cc1ccccc1)C(=O)N1CC(=O)Nc2ccccc2C1c1ccccc1` (stereo not given): the negative logarithm of the Ki (pKi) was 6.00.

As for `CC1c2ccccc2N(C)C(=O)CN1C(=O)N(C)Cc1cc(C(F)(F)F)cc(C(F)(F)F)c1` (stereo not given), the pKi is 6.00. On the same count and under the same terms, in the case of `CC1c2ccccc2NCCN1C(=O)N(C)Cc1cc(C(F)(F)F)cc(C(F)(F)F)c1` (stereo not given) it was 7.40; in that of `CN(Cc1cc(C(F)(F)F)cc(C(F)(F)F)c1)C(=O)N1CC(=O)Nc2ccccc2C1c1ccccc1` (stereo not given), 8.00. The same measure, in the same setting: to `COC(=O)C1c2ccccc2NC(=O)CN1C(=O)N(C)Cc1cc(C(F)(F)F)cc(C(F)(F)F)c1` (stereo not given) belongs 6.50.
